Data on nine compounds can be found in patent US20080032985A1, “4-Substituted Quinoline Derivatives, Method and Intermediates for Their Preparation and Pharmaceutical Compositions Containing Them” (priority 2004, published 2008).

One may read the melting point as the temperature, or range, at which the solid turns liquid.

The subject of series [1] is S. pneumoniae 6254-01 MLSB resistant. As to the kind of experiment: MIC by dilutions in agar medium (NCCLS), Gram-positive. In kind it is cell-based. The following applies: Streptococcus pneumoniae; at 24 hours; agar dilution. From the text:
(§1) The method of dilutions in agar medium in agreement with the NCCLS recommendations is used for the determination of the minimum inhibitory concentrations (MIC) expressed in mg/l.
(§2) The activities of the compounds of examples 5, 8, 10-13 are grouped together in the following table: […]
Background: Agar dilution tests growth on a series of plates holding different concentrations.

Series [2] has as its system E. faecalis ATCC S343211 vancomycin resistant. The series is described as above. The note with it: Enterococcus faecalis; at 24 hours; agar dilution. Format: cell-based.
Excerpt: as §1, §2

Series [3] concerns S. aureus IP8203 sensitive. Described as above. In kind it is cell-based. The following applies: Staphylococcus aureus; at 24 hours; agar dilution.
Excerpt: as §1, §2

In series [4] the test system is S. aureus AS 5155 methicillin resistant. Described as above. In kind it is cell-based. The note with it: Staphylococcus aureus; at 24 hours; agar dilution.
Excerpt: as §1, §2

For series [5], the system named is M. catarrhalis IPA151 sensitive. As to the kind of experiment: MIC by dilutions in agar medium (NCCLS), Gram-negative. In kind it is cell-based. The note with it: Moraxella catarrhalis, IPA151SENSITIVE; at 48 hours; agar dilution.
Excerpt: as §1, §2

The subject of series [6] is H. influenzae MDK 1528 sensitive. Described as above. In kind it is cell-based. The note with it: Haemophilus influenzae; at 48 hours; agar dilution.
Excerpt: as §1, §2

Converted amounts (≈) assume the structure as drawn.

With `COc1ccc2ncc(F)c(CCCC(CNC/C=C/c3cc(F)ccc3F)C(=O)O)c2c1` (racemic) [Example 5, (RS)-2-{[(E)-3-(2,5-difluorophenyl)allylamino]methyl}-5-(3-fluoro-6-methoxyquinolin-4-yl)pentanoic acid], the MIC lay within 0.25 to 0.5 µg/mL (≈ 0.545 to 1.09 µM) in series [1]; 0.25 to 1 µg/mL (≈ 0.545 to 2.18 µM) in series [2]; 0.12 to 1 µg/mL (≈ 0.262 to 2.18 µM) in series [3]; 0.12 to 1 µg/mL (≈ 0.262 to 2.18 µM) in series [4]; 0.5 to 4 µg/mL (≈ 1.09 to 8.72 µM) in series [5]; 2 to 8 µg/mL (≈ 4.36 to 17.4 µM) in series [6].

With `COc1ccc2ncc(F)c(CCCC(CNCCCc3cc(F)ccc3F)C(=O)O)c2c1` (racemic) [Example 8, (RS)-2-{[3-(2,5-difluorophenyl)propylamino]methyl}-5-(3-fluoro-6-methoxyquinolin-4-yl)pentanoic acid], the MIC was 0.25 to 0.5 µg/mL (≈ 0.543 to 1.09 µM) in series [1]; 0.25 to 1 µg/mL (≈ 0.543 to 2.17 µM) in series [2]; 0.12 to 1 µg/mL (≈ 0.261 to 2.17 µM) in series [3]; 0.12 to 1 µg/mL (≈ 0.261 to 2.17 µM) in series [4]; 0.5 to 4 µg/mL (≈ 1.09 to 8.69 µM) in series [5]; 2 to 8 µg/mL (≈ 4.34 to 17.4 µM) in series [6].

Regarding `COc1ccc2ncc(F)c(CCCC(CN(C)C/C=C/c3cc(F)ccc3F)C(=O)[O-])c2c1.[Na+]` (racemic) [Example 10, Sodium (RS)-2-({N-[(E)-3-(2,5-difluorophenyl)allyl]-N-methylamino}methyl)-5-(3-fluoro-6-methoxyquinolin-4-yl)pentanoate], the MIC in series [1] was in the range of 0.25 to 0.5 µg/mL; in series [2], 0.25 to 1 µg/mL; in series [3], 0.12 to 1 µg/mL; in series [4], 0.12 to 1 µg/mL; in series [5], 0.5 to 4 µg/mL; in series [6], 2 to 8 µg/mL.

In the case of `COc1ccc2ncc(F)c(CCCC(CNCCSc3cccs3)C(=O)O)c2c1` (racemic) [Example 11, (RS)-5-(3-Fluoro-6-methoxyquinolin-4-yl)-2-{[2-(thiophen-2-ylsulfanyl)ethylamino]methyl}pentanoic acid], the MIC in series [1] lay in the range of 0.25 to 0.5 µg/mL (≈ 0.557 to 1.11 µM); in series [2] it was 0.25 to 1 µg/mL (≈ 0.557 to 2.23 µM); in series [3], 0.12 to 1 µg/mL (≈ 0.268 to 2.23 µM); in series [4], 0.12 to 1 µg/mL (≈ 0.268 to 2.23 µM); in series [5], 0.5 to 4 µg/mL (≈ 1.11 to 8.92 µM); in series [6], 2 to 8 µg/mL (≈ 4.46 to 17.8 µM).

Consider `COc1ccc2ncc(F)c(CCCC(CNCCSc3cc(F)ccc3F)C(=O)O)c2c1` (racemic) [Example 12, (RS)-2-{[2-(2,5-Difluorophenylsulfanyl)ethylamino]-methyl}-5-(3-fluoro-6-methoxyquinolin-4-yl)pentanoic acid], for which the MIC is 0.25 to 0.5 µg/mL (≈ 0.522 to 1.04 µM) in series [1]; 0.25 to 1 µg/mL (≈ 0.522 to 2.09 µM) in series [2]; 0.12 to 1 µg/mL (≈ 0.251 to 2.09 µM) in series [3]; 0.12 to 1 µg/mL (≈ 0.251 to 2.09 µM) in series [4]; 0.5 to 4 µg/mL (≈ 1.04 to 8.36 µM) in series [5]; 2 to 8 µg/mL (≈ 4.18 to 16.7 µM) in series [6].

Regarding `COc1ccc2ncc(F)c(CCCC(CNCCOc3cc(F)ccc3F)C(=O)O)c2c1` (racemic) [Example 13, (RS)-2-{[2-(2,5-Difluorophenoxy)ethylamino]methyl}-5-(3-fluoro-6-methoxyquinolin-4-yl)pentanoic acid], the MIC in series [1] lay within 0.25 to 0.5 µg/mL (≈ 0.541 to 1.08 µM); in series [2], 0.25 to 1 µg/mL (≈ 0.541 to 2.16 µM); in series [3], 0.12 to 1 µg/mL (≈ 0.259 to 2.16 µM); in series [4] it was 0.12 to 1 µg/mL (≈ 0.259 to 2.16 µM); in series [5], 0.5 to 4 µg/mL (≈ 1.08 to 8.65 µM); in series [6], 2 to 8 µg/mL (≈ 4.32 to 17.3 µM).

As to `COc1ccc2ncc(F)c(CCCC(CN(C/C=C/c3cc(F)ccc3F)CCF)C(=O)O)c2c1` (racemic) [Example 14, (RS)-2-{[N-[(E)-3-(2,5-difluorophenyl)allyl]-N-(2-fluoroethyl)amino]methyl}-5-(3-fluoro-6-methoxy-quinolin-4-yl)pentanoic acid], the melting point was determined as 120 °C.

Consider `COc1ccc2ncc(F)c(CCCC(CNC/C=C/c3cc(F)ccc3F)C(=O)O)c2c1` (single isomer, unassigned) [Example 6, 2-{[(E)-3-(2,5-difluorophenyl)allylamino]methyl}-5-(3-fluoro-6-methoxyquinolin-4-yl)pentanoic acid], for which the melting point stood at 168 °C.

Turning to `COc1ccc2ncc(F)c(CCCC(CNC/C=C/c3cc(F)ccc3F)C(=O)O)c2c1` (single isomer, unassigned) [Example 7, 2-{[(E)-3-(2,5-difluorophenyl)allylamino]methyl}-5-(3-fluoro-6-methoxyquinolin-4-yl)pentanoic acid], the melting point was 166 °C.
